Results from US12690589B2, “Herbicidal compositions comprising pyroxasulfone” (BASF SE, priority 2024, dated 2026).

Tests used:
Assay in all cases: Post-emergence application in field trials, herbicidal activity (damage scale 0 to 100%)
Format in all cases: in vivo
[1] = tested on: Amaranthus retroflexus (AMARE); settings: stage 31-49, height 10-12 cm
Description: (§1) In the examples below, using the method of S. R. Colby (1967) “Calculating synergistic and antagonistic responses of herbicide combinations”, Weeds 15, p. 22ff., the value E, which is expected if the activity of the individual active compounds is only additive, was calculated:
(§2) [formula] • wherein • X=percent activity using active herbicide A at an application rate a; • Y=percent activity using active herbicide B (e.g. pyroxasulfone) at an application rate b; • E=expected activity (in %) by A+B at application rates a+b.
(§3) For 3-component mixtures the synergistic response was calculated as described in: Ferry, Nancy; Stanley, Bruce H.; and Armel, Gregory (2005). “DESIGN AND ANALYSIS OF BIOLOGICAL ASSAYS OF MIXTURES,” Conference on Applied Statistics in Agriculture. https://doi.org/10.4148/2475-7772.1133. According to this publication, the Colby calculation can be generalized to a third mixing partner, Z, employing the following formula: […]
(§4) If the value found experimentally is higher than the value E calculated according to Colby, a synergistic effect is present.
(§5) On field test sites, natural weed infestation or seeded weeds were treated post-emergence of the weeds.
(§6) In the field trials, the weeds were treated as indicated below.
(§7) In the following experiments, the herbicidal activity for the individual herbicidal compositions (solo and mixture applications) was assessed at the indicated days after treatment (DAT). The assessments for the damage on undesired weeds caused by the composition was carried out using a scale from 0 to 100%, compared to the untreated control plants. Here, 0 means no damage and 100 means complete destruction of the plants.
(§8) Herbicide A-1 (342 g/l) and pyroxasulfone (500 g/l) were, together with addition of 0.25 v/v % MSO (methylated seed oil) as adjuvant, formulated in 200 l/ha water as distribution medium and sprayed with commercial flat fan nozzles.
(§9) Herbicide A-1 (342 g/l), pyroxasulfone (500 g/l) and trifludimoxazin (500 g/l) were, together with addition of 0.25 v/v % MSO (methylated seed oil) as adjuvant, formulated in 200 l/ha water as distribution medium and sprayed with commercial flat fan nozzles.
(§10) Herbicide A-1 (342 g/I), pyroxasulfone (500 g/l) and glyphosate-isopropylammonium (356 g/l) were, together with addition of 0.25 v/v % MSO (methylated seed oil) as adjuvant, formulated in 200 l/ha water as distribution medium and sprayed with commercial flat fan nozzles.
(§11) Herbicide A-1 (342 g/l), pyroxasulfone (500 g/l) and glufosinate-P-ammonium (211 g/l) were, together with addition of 0.25 v/v % MSO (methylated seed oil) as adjuvant, formulated in 200 l/ha water as distribution medium and sprayed with commercial flat fan nozzles.
(§12) Herbicide A-1 (342 g/l), pyroxasulfone (500 g/l) and 2,4-D-choline (456 g/l) were, together with addition of 0.25 v/v % MSO (methylated seed oil) as adjuvant, formulated in 200 l/ha water as distribution medium and sprayed with commercial flat fan nozzles.

[2] = tested on: Digitaria sanguinalis (DIGSA); settings: stage 22, height 10-15 cm
Description: as §1, §2, §3, §4, §5, §6, §7, §8, §9, §10, §11, §12

Glycine max (GLXMA) = settings: 7 DAT; stage 12-13, height 7-11 cm; g ai/ha A-1 12.5, B 70, C-4 12.5
Description: as §1, §2, §3, §4, §5, §6, §7, §8, §9, §10, §11, §12

[3] = tested on: Setaria verticillata (SETVE); settings: 7 DAT, stage 21-23, height 8-16 cm
Description: as §1, §2, §3, §4, §5, §6, §7, §8, §9, §10, §11, §12

Zea mays (ZEAMX) = settings: 7 DAT; stage 15-16, height 27-33 cm; g ai/ha A-1 18, B 90, C-4 12.5
Description: as §1, §2, §3, §4, §5, §6, §7, §8, §9, §10, §11, §12

[4] = 7 DAT, g ai/ha A-1 12.5, B 70, C-4 12.5
[5] = 42 DAT, g ai/ha A-1 12.5, B 70, C-4 12.5
[6] = 42 DAT, g ai/ha A-1 18, B 70, C-4 12.5
[7] = 42 DAT, g ai/ha A-1 18, B 90, C-4 12.5

| Structure (SMILES) | % Herbicidal activity [1, 4] | % Herbicidal activity [1, 5] | % Herbicidal activity [1, 6] | % Herbicidal activity [1, 7] | % Herbicidal activity [2, 4] | % Herbicidal activity ([2]; 7 DAT, g ai/ha A-1 18, B 70, C-4 12.5) | % Herbicidal activity ([2]; 7 DAT, g ai/ha A-1 18, B 90, C-4 12.5) | % Herbicidal activity ([2]; 21 DAT, g ai/ha A-1 12.5, B 70, C-4 12.5) | % Herbicidal activity ([2]; 21 DAT, g ai/ha A-1 18, B 70, C-4 12.5) | % Herbicidal activity ([2]; 21 DAT, g ai/ha A-1 18, B 90, C-4 12.5) | % Herbicidal activity [2, 5] | % Herbicidal activity [2, 6] | % Herbicidal activity [2, 7] | % Herbicidal activity (Glycine max (GLXMA)) | % Herbicidal activity ([3]; g ai/ha A-1 18, B 90, C-4 12.5) | % Herbicidal activity (Zea mays (ZEAMX)) | % Herbicidal activity ([2]; 7 DAT, g ai/ha A-1 18, B 70, C-8 840) | % Herbicidal activity ([2]; 7 DAT, g ai/ha A-1 18, B 90, C-8 840) | % Herbicidal activity ([3]; g ai/ha A-1 18, B 70, C-8 840) | % Herbicidal activity ([3]; g ai/ha A-1 18, B 90, C-8 840) |
| --- | --- | --- | --- | --- | --- | --- | --- | --- | --- | --- | --- | --- | --- | --- | --- | --- | --- | --- | --- | --- |
| C#CCN1C(=O)C(F)(F)Oc2cc(F)c(-n3c(=O)n(C)c(=S)n(C)c3=O)cc21 [C-4, trifludimoxazin] | 80% | 80% | 80% | 80% | 30% | 30% | 30% | 30% | 30% | 30% | 20% | 20% | 20% | 75% | 40% | 40% |  |  |  |  |
| CC(C)N.O=C(O)CNCP(=O)(O)O [C-8, glyphosate-isopropylammonium] |  |  |  |  |  |  |  |  |  |  |  |  |  |  |  |  | 85% | 85% | 75% | 75% |
